The target of assay [1] is hBChE (Homo sapiens, UniProt P06276). Kind of assay: biochemical. It is filed as biochemical.
For assay [2], the target named is T1, hCB1R (Homo sapiens, UniProt P21554).
T1 construct: expressed in transfected cells; host or cells: CHO cells stably expressing hCB1R
In kind it is binding.

In assay [3] the target is eeAChE (Electrophorus electricus, UniProt O42275). The assay can be described thus: biochemical.
The target in assay [4] is T2, hCB2R (Homo sapiens, UniProt P34972).
T2 construct: expressed in transfected cells; host or cells: HEK cells stably expressing hCB2R
T2 sequence (P34972 whole entry): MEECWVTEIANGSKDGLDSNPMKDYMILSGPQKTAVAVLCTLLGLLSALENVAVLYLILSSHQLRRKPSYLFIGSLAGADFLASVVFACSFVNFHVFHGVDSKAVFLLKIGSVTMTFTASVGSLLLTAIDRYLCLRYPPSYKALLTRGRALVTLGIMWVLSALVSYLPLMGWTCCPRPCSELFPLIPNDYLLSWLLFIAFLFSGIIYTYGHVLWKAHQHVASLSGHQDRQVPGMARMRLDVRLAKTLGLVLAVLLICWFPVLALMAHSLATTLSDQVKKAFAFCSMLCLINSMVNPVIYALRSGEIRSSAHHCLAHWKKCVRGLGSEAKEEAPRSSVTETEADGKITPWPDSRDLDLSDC
Kind of assay: biochemical. It is filed as binding.

The test system of assay [5] is HT-22 cells. In kind it is cell-based, murine.
Assay [6] has as its system Aβ25-35-induced learning impairments in mice. The conditions noted are these: mouse, in vivo, ip.
Assay [7] deals with hAChE (Homo sapiens, UniProt P22303). The assay can be described thus: biochemical. It is filed as biochemical.
Sequence of hAChE (P22303 32-614): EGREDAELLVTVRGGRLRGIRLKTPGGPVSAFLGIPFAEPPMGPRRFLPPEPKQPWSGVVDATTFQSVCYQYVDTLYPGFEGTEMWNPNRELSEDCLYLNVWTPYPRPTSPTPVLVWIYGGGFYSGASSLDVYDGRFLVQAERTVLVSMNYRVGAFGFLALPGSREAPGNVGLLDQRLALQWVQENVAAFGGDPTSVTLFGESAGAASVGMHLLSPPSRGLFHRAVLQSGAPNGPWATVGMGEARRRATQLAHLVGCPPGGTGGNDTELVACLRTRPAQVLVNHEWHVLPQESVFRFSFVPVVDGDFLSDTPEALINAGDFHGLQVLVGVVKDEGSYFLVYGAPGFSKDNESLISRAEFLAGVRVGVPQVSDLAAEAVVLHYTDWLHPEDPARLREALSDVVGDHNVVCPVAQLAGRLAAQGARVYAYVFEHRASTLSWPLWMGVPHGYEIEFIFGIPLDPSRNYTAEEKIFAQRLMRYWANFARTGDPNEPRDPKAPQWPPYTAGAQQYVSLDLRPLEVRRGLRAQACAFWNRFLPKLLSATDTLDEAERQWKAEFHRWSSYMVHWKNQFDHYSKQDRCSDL
Assay [8] deals with murine microglial cell line N9. The assay can be described thus: Microglia activation: LPS-activated N9 cells, M1/M2 markers (Griess reaction, western blot). In kind it is cell-based. The conditions noted are these: N9 cells, 100 ng/mL LPS, 1-5 µM compound, 24 h. (In general: The Griess reaction detects nitrite, a stable product of nitric oxide.)
Assay [9] addresses Aβ42 (Homo sapiens, UniProt P05067). The assay can be described thus: Aβ42 self-aggregation, thioflavin-T fluorescence assay. It is filed as biochemical. The note with it: for inhibition at 50 µM: read-out: % inhibition Aβ aggregation self-induced; for inhibition of Aβ42 self-aggregation (in words): 1/1 ratio with Aβ42.
The target in assay [10] is hAChE-induced Aβ40 aggregation (Homo sapiens, UniProt P22303). Kind of assay: biochemical. In kind it is biochemical.
Sequence of hAChE-induced Aβ40 aggregation (P22303 32-614): as above
In assay [11] the target is T2, hCB2R. In kind it is cell-based.
The mark [12] stands for this setting: eeAChE from electric eel, read-out: IC50 AChE (eeAChE).

As usually defined, the IC50 is the point on the concentration scale where inhibition reaches its midpoint. As usually defined, the Ki is the dissociation constant of the complex between target and ligand, obtained from inhibition or displacement. By inhibition is commonly meant the percentage by which the read-out fell short of the control.

Like-named read-outs stand apart in the source and are kept apart here.

Sequence of Aβ42 (P05067 672-713): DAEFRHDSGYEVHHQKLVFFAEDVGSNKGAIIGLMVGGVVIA
Sequence of eeAChE (O42275 24-633): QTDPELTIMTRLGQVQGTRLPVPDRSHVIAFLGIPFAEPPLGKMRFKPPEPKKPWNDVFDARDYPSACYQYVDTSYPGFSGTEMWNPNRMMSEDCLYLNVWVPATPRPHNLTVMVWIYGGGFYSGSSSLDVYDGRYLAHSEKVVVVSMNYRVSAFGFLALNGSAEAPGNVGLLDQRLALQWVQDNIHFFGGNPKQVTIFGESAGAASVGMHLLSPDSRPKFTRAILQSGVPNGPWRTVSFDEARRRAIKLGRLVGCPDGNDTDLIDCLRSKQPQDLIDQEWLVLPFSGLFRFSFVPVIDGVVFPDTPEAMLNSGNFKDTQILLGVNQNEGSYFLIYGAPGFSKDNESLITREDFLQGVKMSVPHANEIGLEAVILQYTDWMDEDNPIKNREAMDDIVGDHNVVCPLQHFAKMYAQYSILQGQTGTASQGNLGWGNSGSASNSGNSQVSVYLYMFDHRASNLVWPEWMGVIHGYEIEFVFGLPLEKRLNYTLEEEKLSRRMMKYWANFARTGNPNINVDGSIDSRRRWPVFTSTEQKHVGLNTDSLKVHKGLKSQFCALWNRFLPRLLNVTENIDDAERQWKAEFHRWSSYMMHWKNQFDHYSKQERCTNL
Sequence of hBChE (P06276 29-602): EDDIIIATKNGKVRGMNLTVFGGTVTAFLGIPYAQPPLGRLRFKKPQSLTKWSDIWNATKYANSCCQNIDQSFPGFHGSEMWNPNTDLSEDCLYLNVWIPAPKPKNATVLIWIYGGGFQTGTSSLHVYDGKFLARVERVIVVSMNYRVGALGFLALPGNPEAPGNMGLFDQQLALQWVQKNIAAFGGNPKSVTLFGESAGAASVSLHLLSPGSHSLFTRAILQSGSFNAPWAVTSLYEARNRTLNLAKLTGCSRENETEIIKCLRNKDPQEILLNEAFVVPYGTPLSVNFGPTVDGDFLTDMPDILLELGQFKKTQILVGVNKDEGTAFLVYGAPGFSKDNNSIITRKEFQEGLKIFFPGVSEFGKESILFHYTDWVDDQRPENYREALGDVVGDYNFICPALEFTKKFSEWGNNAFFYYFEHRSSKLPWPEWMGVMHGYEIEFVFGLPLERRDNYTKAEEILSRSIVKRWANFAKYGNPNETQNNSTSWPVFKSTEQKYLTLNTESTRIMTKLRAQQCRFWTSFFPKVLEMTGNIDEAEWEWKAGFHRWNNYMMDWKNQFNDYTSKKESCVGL
T1 sequence (P21554 whole entry): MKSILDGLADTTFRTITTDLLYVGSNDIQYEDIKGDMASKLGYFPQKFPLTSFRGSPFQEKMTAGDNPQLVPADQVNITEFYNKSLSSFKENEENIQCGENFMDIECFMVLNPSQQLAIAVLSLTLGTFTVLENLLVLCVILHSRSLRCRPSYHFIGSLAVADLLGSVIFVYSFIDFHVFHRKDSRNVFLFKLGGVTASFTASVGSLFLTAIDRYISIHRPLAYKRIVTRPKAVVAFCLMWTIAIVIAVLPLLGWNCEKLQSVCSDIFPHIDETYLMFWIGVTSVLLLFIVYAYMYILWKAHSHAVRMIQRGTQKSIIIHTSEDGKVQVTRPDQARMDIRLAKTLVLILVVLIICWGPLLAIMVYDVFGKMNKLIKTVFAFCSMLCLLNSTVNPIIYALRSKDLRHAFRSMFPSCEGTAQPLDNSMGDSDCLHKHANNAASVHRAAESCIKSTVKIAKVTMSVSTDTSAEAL

As for `CCOc1ccc(Cc2nc3cc(C(=O)N(CC)CC)ccc3n2CCCNc2c3c(nc4ccccc24)CCCC3)cc1` [3b, 2-(4-Ethoxybenzyl)-N,N-diethyl-1-(3-((1,2,3,4-tetrahydroacridin-9-yl)amino)propyl)-1H-benzo[d]imidazole-5-carboxamide], in [1], the “inhibitory potency towards hBChE compared to tacrine” value was “increased inhibitory potency”. Also, the “[^3H]CP 55,940 displ. @10 µM hCB1R” value in assay [2] is reported as 15%. The IC50 in [3] (setting [12]) came to 130 nM.

Take `CCOc1ccc(Cc2nc3cc(C(=O)N(CC)CC)ccc3n2CCCCNc2c3c(nc4ccccc24)CCCC3)cc1` [3c, 2-(4-ethoxybenzyl)-N,N-diethyl-1-(4-((1,2,3,4-tetrahydroacridin-9-yl)amino)butyl)-1H-benzo[d]imidazole-5-carboxamide]: the Ki in assay [4] is 25100 nM; in [4] (read-out: Ki hCB2R), 26900 nM. In addition, in assay [2], the “[^3H]CP 55,940 displ. @10 µM hCB1R” value was 32%. Also, the IC50 in assay [3] (setting [12]) worked out at 157 nM.

Consider `CCOc1ccc(Cc2nc3cc(C(=O)N(CC)CC)ccc3n2CCCCCNc2c3c(nc4ccccc24)CCCC3)cc1` [3d, 2-(4-Ethoxybenzyl)-N,N-diethyl-1-(5-((1,2,3,4-tetrahydroacridin-9-yl)amino)pentyl)-1H-benzo[d]imidazole-5-carboxamide], for which the “neuroprotective behavior (in words)” value in assay [5] is “none”. Also, in assay [6], the “dose that significantly prevented Aβ25-35-induced learning impairments” value amounted to 0.3 mg/kg. Further, the “pIC50 ± SD AChE (hAChE)” value in [7] is 199 nM^b 641 nM^c (6.2 ± 0.1). The IC50 in assay [7] (IC50 AChE (hAChE)) amounted to 641 nM; in assay [3], 199 nM. Besides, the results for the Ki in assay [4] and in [4] (read-out: Ki hCB2R) were 7940 nM and 7300 nM, respectively. In addition, the “[^3H]CP 55,940 displ. @10 µM hCB1R” value in [2] is 21%.

For `CCOc1ccc(Cc2nc3cc(C(=O)NCCNc4c5c(nc6ccccc46)CCCC5)ccc3n2CCC(C)C)cc1` [4a, 2-(4-Ethoxybenzyl)-1-isopentyl-N-(2-((1,2,3,4-tetrahydroacridin-9-yl)amino)ethyl)-1H-benzo[d]imidazole-5-carboxamide], in [6], the “dose that significantly prevented Aβ25-35-induced learning impairments” value is on record as 0.3 mg/kg and the “most effective dose (completely prevented Aβ25-35 impairments in both tests)” value was determined as 1 mg/kg. The “pIC50 ± SD hCB2R (in brackets after Ki)” value in assay [4] is listed as 2.5 µM (5.6 ± 0.2). For the same molecule, in assay [4] (read-out: Ki hCB2R), the Ki is 2500 nM. The “NO release / nitrite accumulation” value in [8] is on record as “reduced”. Besides, in [8] (M1 marker), the IL1β release entry is given as “significantly decrease” and the iNOS expression result is on record as “significantly decrease”. For the same molecule, in assay [8] (M2 marker), the TGFβ2 expression result is “not reduced” and the TREM2 expression result is recorded as “not reduced”. Also, the IC50 in assay [3] (setting [12]) came to 2.1 nM.

As to `CCOc1ccc(Cc2nc3cc(C(=O)NCCCNc4c5c(nc6ccccc46)CCCC5)ccc3n2CCC(C)C)cc1` [4b, 2-(4-Ethoxybenzyl)-1-isopentyl-N-(3-((1,2,3,4-tetrahydroacridin-9-yl)amino)propyl)-1H-benzo[d]imidazole-5-carboxamide], the inhibition at 50 µM in [9] (50 µM inhibitor and 50 µM Aβ42, mean ± SEM) was determined as 16.4 ± 4.2%. Moreover, the “inhibition of Aβ42 self-aggregation (in words)” value in [9] is given as “quite weak”. The “inhibitory activity towards hAChE compared to tacrine” value in [7] (compared to tacrine) is “higher inhibitory activity”. For the same molecule, the “pIC50 ± SD hCB2R (in brackets after Ki)” value in [4] is given as 5.0 µM (5.3 ± 0.1). In addition, the Ki in assay [4] (read-out: Ki hCB2R) came out at 5000 nM. Besides, in assay [1], the “inhibitory potency towards hBChE compared to tacrine” value is on record as “increased inhibitory potency”. In assay [2], the “[^3H]CP 55,940 displ. @10 µM hCB1R” value is 20%. In addition, the “inhibition of AChE-induced Aβ40 aggregation (in words)” value in [10] is listed as “significantly reduce”. In addition, the inhibition at 100 µM in assay [10] ([I] = 100 µM, Aβ40/hAChE ratio 100/1, mean ± SEM, read-out: % inhibition Aβ aggregation AChE-induced) came to 47.8 ± 9.6%. In addition, in assay [3] (setting [12]), the IC50 was determined as 3.2 nM.

Turning to `CCOc1ccc(Cc2nc3cc(C(=O)NCCCCNc4c5c(nc6ccccc46)CCCC5)ccc3n2CCC(C)C)cc1` [4c, 2-(4-Ethoxybenzyl)-1-isopentyl-N-(4-((1,2,3,4-tetrahydroacridin-9-yl)amino)butyl)-1H-benzo[d]imidazole-5-carboxamide], in [11], the MIF gene expression result is “reduced”, the STAT-3 gene expression result was “reduced” and the “behavior at the hCB2R” value was “maintained their agonist behavior”. In addition, the Ki in assay [4] was 2510 nM. Moreover, in [4] (read-out: Ki hCB2R), the Ki is 2400 nM. Moreover, in assay [2], the “[^3H]CP 55,940 displ. @10 µM hCB1R” value was 9%. In assay [3] (setting [12]), the IC50 came to 12.8 nM.

`CCOc1ccc(Cc2nc3cc(C(=O)NCCCCCNc4c5c(nc6ccccc46)CCCC5)ccc3n2CCC(C)C)cc1` [4d, 2-(4-Ethoxybenzyl)-1-isopentyl-N-(5-((1,2,3,4-tetrahydroacridin-9-yl)amino)pentyl)-1H-benzo[d]imidazole-5-carboxamide]: the “pIC50 ± SD hCB2R (in brackets after Ki)” value in assay [4] is 4.0 µM (5.4 ± 0.1). Also, in assay [4] (read-out: Ki hCB2R), the Ki was 4000 nM. Moreover, in [2], the “[^3H]CP 55,940 displ. @10 µM hCB1R” value is on record as 15%. In addition, the IC50 in [3] (setting [12]) worked out at 52.7 nM.

Turning to `CCOc1ccc(Cc2nc3cc(C(=O)NCCCCCCNc4c5c(nc6ccccc46)CCCC5)ccc3n2CCC(C)C)cc1` [4e, 2-(4-Ethoxybenzyl)-1-isopentyl-N-(6-((1,2,3,4-tetrahydroacridin-9-yl)amino)hexyl)-1H-benzo[d]imidazole-5-carboxamide], the Ki in [4] was 10000 nM; in assay [4] (read-out: Ki hCB2R), 9600 nM. The “[^3H]CP 55,940 displ. @10 µM hCB1R” value in [2] was determined as 54%. For the same molecule, the IC50 in assay [3] (setting [12]) came to 8.5 nM.

As for `Cc1c(C(=O)NN2CCCCC2)nn(-c2ccc(Cl)cc2Cl)c1-c1ccc(Cl)cc1` [Rimonabant, reference compound], the “[^3H]CP 55,940 displ. @10 µM hCB2R” value in assay [4] turned out to be 4%.

In the case of `Nc1c2c(nc3ccccc13)CCCC2` [Tacrine 1, tacrine, reference compound], in assay [9], the “inhibition of Aβ42 self-aggregation (in words)” value is listed as “no effect” and the inhibition at 50 µM is below 5%.

For `CCOc1ccc(Cc2nc3cc(C(=O)N(CC)CCCCNc4c5c(nc6ccccc46)CCCC5)ccc3n2CCC(C)C)cc1` [compound 5, 2-(4-ethoxybenzyl)-N-ethyl-1-isopentyl-N-(4-((1,2,3,4-tetrahydroacridin-9-yl)amino)butyl)-1H-benzo[d]imidazole-5-carboxamide], the “pIC50 ± SD AChE (hAChE)” value in [7] (hAChE recombinant expressed) turned out to be 6.6 ± 0.1. In assay [7] (hAChE recombinant expressed, read-out: IC50 AChE (hAChE)), the IC50 was found to be 259 nM. In addition, in assay [4], the Ki is 3160 nM, the “affinity towards hCB2R (in words)” value is “same affinity” and the “selectivity hCB2R over hCB1R (in words)” value is recorded as “low selectivity”. In addition, the Ki in [4] (read-out: Ki hCB2R) is 3000 nM. Further, the SI in assay [1] worked out at 6.2. Also, the “pIC50 ± SD hBChE” value in assay [1] (hBChE from human serum) was determined as 7.2 ± 0.1. In addition, the IC50 in assay [1] (hBChE from human serum, means of at least three determinations, read-out: IC50 hBChE) was 60 nM. Further, in assay [2], the “[^3H]CP 55,940 displ. @10 µM hCB1R” value worked out at 36% and the “affinity towards hCB1R (in words)” value is recorded as “higher affinity”. In addition, the IC50 in assay [3] (setting [12]) was 370 nM.

`CCOc1ccc(Cc2nc3cc(C(=O)N(CC)CC)ccc3n2CCOCCOCCNc2c3c(nc4ccccc24)CCCC3)cc1` [compound 6, 2-(4-Ethoxybenzyl)-N,N-diethyl-1-(2-(2-(2-((1,2,3,4-tetrahydroacridin-9-yl)amino)ethoxy)ethoxy)ethyl)-1H-benzo[d]imidazole-5-carboxamide]: in [4], the Ki was 31600 nM and the “affinity towards hCB2R (in words)” value was “weaker affinity”. The Ki in [4] (read-out: Ki hCB2R) is 28700 nM. Further, in [1], the IC50 is 90 nM and the “pIC50 ± SD hBChE” value is reported as 90 nM (7.0 ± 0.1). The “[^3H]CP 55,940 displ. @10 µM hCB1R” value in [2] was determined as 11%. For the same molecule, in [3], the IC50 worked out at 150 nM.

In the case of `CCOc1ccc(Cc2nc3cc(C(=O)NCCOCCOCCNc4c5c(nc6ccccc46)CCCC5)ccc3n2CCC(C)C)cc1` [compound 7, 2-(4-Ethoxybenzyl)-1-isopentyl-N-(2-(2-(2-((1,2,3,4-tetrahydroacridin-9-yl)amino)ethoxy)ethoxy)ethyl)-1H-benzo[d]imidazole-5-carboxamide], the half-inhibitory concentration (IC50) in assay [7] (IC50 AChE (hAChE)) came out at 1360 nM; in assay [7] (pIC50 ± SD AChE (hAChE)), 1400 nM; in assay [3], 1030 nM. Further, the results for the inhibitory constant (Ki) in assay [4] and in [4] (read-out: Ki hCB2R) were 15800 nM and 17400 nM, respectively. Further, the “affinity towards hCB2R (in words)” value in assay [4] is “weaker affinity”. In addition, the “[^3H]CP 55,940 displ. @10 µM hCB1R” value in [2] is 32%.

The record behind these values is patent EP3771713A1 (priority 2019, dated 2021).
